# Test system: Pseudomonas aeruginosa FP 1380
# Experiment: In vitro antibacterial activity (MIC) by two-fold agar-plate dilution method
# Format: cell-based
# Conditions: FP1380; test strain Pseudomonas aeruginosa FP 1380; heart infusion agar, incubation at 37° C. for 20 hours
# Experimental: Now in order to show the utility of the object compound [I], the test data on MIC (minimal inhibitory concentration) of a representative compound of this invention are shown in the following.
# In vitro antibacterial activity was determined by the two-fold agar-plate dilution method as described below.
# One loopful of an overnight culture of each test strain in Trypticase-soy broth (10^6 viable cells per ml) was streaked on heart infusion agar (HI-agar) containing graded concentrations of representative test compound, and the minimal inhibitory concentration (MIC) was expressed in μg/ml after incubation at 37° C. for 20 hours.
row,SMILES,MIC [µg/mL]
1,"Cn1c(N)c(NC(=O)N(CCN)CCN)c[n+]1CC1=C(C(=O)[O-])N2C(=O)[C@@H](NC(=O)/C(=N\OC(C)(C)C(=O)O)c3nsc(N)n3)[C@H]2SC1 [Compound (a), 7β-[(Z)-2-(5-amino-1,2,4-thiadiazol-3-yl)-2-(1-carboxy-1-methylethoxyimino)acetamido]-3-{3-amino-4-({[bis(2-aminoethyl)amino]carbonyl}amino)-2-methyl-1-pyrazolio}methyl-3-cephem-4-carboxylate]",1
2,"Cn1c(N)c(NC(=O)N(CCN)CCCN)c[n+]1CC1=C(C(=O)[O-])N2C(=O)[C@@H](NC(=O)/C(=N\OC(C)(C)C(=O)O)c3nsc(N)n3)[C@H]2SC1 [Compound (c), 7β-[(Z)-2-(5-amino-1,2,4-thiadiazol-3-yl)-2-(1-carboxy-1-methylethoxyimino)acetamido]-3-[3-amino-4-({[N-(2-aminoethyl)-N-(3-aminopropyl)amino]carbonyl}-amino)-2-methyl-1-pyrazolio]methyl-3-cephem-4-carboxylate]",1
3,"Cn1c(N)c(NC(=O)CC(=O)NC(CN)CN)c[n+]1CC1=C(C(=O)[O-])N2C(=O)[C@@H](NC(=O)/C(=N\OC(C)(C)C(=O)O)c3nsc(N)n3)[C@H]2SC1 [Compound (e), 7β-[(Z)-2-(5-amino-1,2,4-thiadiazol-3-yl)-2-(1-carboxy-1-methylethoxyimino)acetamido]-3-{3-amino-4-[(3-{[2-amino-1-(aminomethyl)ethyl]amino}-3-oxopropanoyl)amino]-2-methyl-1-pyrazolio}methyl-3-cephem-4-carboxylate]",1

# More lines, in order of falling MIC, values ahead:
row,MIC [µg/mL],SMILES
1,128,"CC(C)(O/N=C(\C(=O)N[C@@H]1C(=O)N2C(C(=O)[O-])=C(C[n+]3ccccc3)CS[C@H]12)c1csc(N)n1)C(=O)O [Ceftazidime, reference compound]"
2,1,"Cn1c(N)c(NC(=O)N(CCN)CCN)c[n+]1CC1=C(C(=O)O)N2C(=O)[C@@H](NC(=O)/C(=N\OC(C)(C)C(=O)O)c3nsc(N)n3)[C@H]2SC1.O=S(=O)([O-])O [Compound (b), 7β-[(Z)-2-(5-amino-1,2,4-thiadiazol-3-yl)-2-(1-carboxy-1-methylethoxyimino)acetamido]-3-{3-amino-4-({[bis(2-aminoethyl)amino]carbonyl}amino)-2-methyl-1-pyrazolio}methyl-3-cephem-4-carboxylic acid hydrogensulfate]"
3,1,"Cn1c(N)c(NC(=O)NC(CN)CN)c[n+]1CC1=C(C(=O)O)N2C(=O)[C@@H](NC(=O)/C(=N\OC(C)(C)C(=O)O)c3nsc(N)n3)[C@H]2SC1.O=S(=O)([O-])O [Compound (d), 7β-[(Z)-2-(5-amino-1,2,4-thiadiazol-3-yl)-2-(1-carboxy-1-methylethoxyimino)acetamido]-3-(3-amino-4-{3-[2-amino-1-(aminomethyl)ethyl]ureido}-2-methyl-1-pyrazolio)methyl-3-cephem-4-carboxylic acid hydrogensulfate]"
